In US8188098B2, “GPR119 receptor agonists” (Hoffmann-La Roche Inc., priority 2008, dated 2012) one finds EC50 data, which are given here for 30 compounds.

In this assay the target is T1, GPR119 receptor (Mesocricetus auratus, UniProt A0A1U8CD06).
T1 construct: which endogenously express the GPR119 receptor; host or cells: HIT-T15 hamster pancreatic islet cells
T1 sequence (A0A1U8CD06 1-334): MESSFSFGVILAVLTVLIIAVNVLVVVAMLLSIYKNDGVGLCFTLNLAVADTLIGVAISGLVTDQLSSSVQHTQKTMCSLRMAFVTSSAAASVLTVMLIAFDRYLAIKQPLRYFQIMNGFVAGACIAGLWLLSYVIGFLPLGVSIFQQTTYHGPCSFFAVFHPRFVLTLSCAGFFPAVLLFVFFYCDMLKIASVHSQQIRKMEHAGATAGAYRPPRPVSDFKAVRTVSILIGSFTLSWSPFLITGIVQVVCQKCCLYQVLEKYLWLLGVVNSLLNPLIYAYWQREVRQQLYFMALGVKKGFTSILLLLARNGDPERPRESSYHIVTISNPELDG
Nature of the assay: cAMP assay in HIT-T15 hamster pancreatic islet cells (functional agonist activity). The conditions noted are these: HIT-T15 cells endogenously expressing GPR119; 30 min at 25° C.; intracellular cAMP. The assay is classed as cell-based. An outline of the steps: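 HIT-T15 cells (endogenous GPR119), 9000/well, exposed to agonist 30 min at 25° C with 0.5 mM IBMX and 0.5 mg/ml BSA. Lysate cAMP measured by chemiluminescent competitive immunoassay; EC50 from curve fit.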
The compound `CC(C)OC(=O)N1CCC(n2ncc3c(Oc4c(C#N)ccc(F)c4F)ncnc32)CC1` [Example 20, 4-[4-(6-Cyano-2,3-difluoro-phenoxy)-pyrazolo[3,4-d]pyrimidin-1-yl]-piperidine-1-carboxylic acid isopropyl ester] displayed an EC50 of 0.57 µM.
Turning to `CC(C)CS(=O)(=O)N1CCC(n2ncc3c(Oc4ccc(S(C)(=O)=O)cc4)ncnc32)CC1` [Example 171, 4-(4-Methanesulfonyl-phenoxy)-1-[1-(2-methyl-propane-1-sulfonyl)-piperidin-4-yl]-1H-pyrazolo[3,4-d]pyrimidine], the EC50 came to 0.4 µM.
For `CC(C)(C)OC(=O)N1CCC(n2ncc3c(Oc4ccc(Br)cc4C#N)ncnc32)CC1` [Example 52, 4-[4-(4-Bromo-2-cyano-phenoxy)-pyrazolo[3,4-d]pyrimidin-1-yl]-piperidine-1-carboxylic acid tert-butyl ester] the value was 0.75 µM; for `CS(=O)(=O)c1ccc(Oc2ncnc3c2cnn3C2CCN(Cc3ccccc3)CC2)cc1` [Example 157, 1-(1-Benzyl-piperidin-4-yl)-4-(4-methanesulfonyl-phenoxy)-1H-pyrazolo[3,4-d]pyrimidine], 0.58 µM.
For `Cc1ncccc1Nc1ncnc2c1cnn2C1CCN(C(=O)OC(C)(C)C)CC1` [Example 7, 4-[4-(2-Methyl-pyridin-3-ylamino)-pyrazolo[3,4-d]pyrimidin-1-yl]-piperidine-1-carboxylic acid tert-butyl ester] the value was 2.2 µM; for `CS(=O)(=O)c1ccc(Oc2ncnc3c2cnn3C2CCN(Cc3cccc(Cl)c3)CC2)cc1` [Example 158, 1-[1-(3-Chloro-benzyl)-piperidin-4-yl]-4-(4-methanesulfonyl-phenoxy)-1H-pyrazolo[3,4-d]pyrimidine], 0.28 µM; for `CC(OC(=O)N1CCC(n2ncc3c(Oc4ccc(S(C)(=O)=O)cc4)ncnc32)CC1)C(F)(F)F` (stereo not drawn) [Example 110, 4-[4-(4-Methanesulfonyl-phenoxy)-pyrazolo[3,4-d]pyrimidin-1-yl]-piperidine-1-carboxylic acid 2,2,2-trifluoro-1-methyl-ethyl ester], 1 µM.
Take `CC[C@@H](C)OC(=O)N1CCC(n2ncc3c(Oc4ccc(S(C)(=O)=O)cc4)ncnc32)CC1` [Example 105, 4-[4-(4-Methanesulfonyl-phenoxy)-pyrazolo[3,4-d]pyrimidin-1-yl]-piperidine-1-carboxylic acid (R)-sec-butyl ester]: a half-maximal effect (EC50) was put at 0.15 µM.
The compound `COc1ccc(Oc2ncnc3c2cnn3C2CCN(C(=O)OC(C)(C)C)CC2)cc1` [Example 39, 4-[4-(4-Methoxy-phenoxy)-pyrazolo[3,4-d]pyrimidin-1-yl]-piperidine-1-carboxylic acid tert-butyl ester] came in with a 50% effective concentration (EC50) of 0.72 µM.
Under `CS(=O)(=O)c1ccc(Oc2ncnc3c2cnn3C2CCN(C(=O)OC(C(F)(F)F)C(F)(F)F)CC2)cc1` [Example 112, 4-[4-(4-Methanesulfonyl-phenoxy)-pyrazolo[3,4-d]pyrimidin-1-yl]-piperidine-1-carboxylic acid 2,2,2-trifluoro-1-trifluoromethyl-ethyl ester] stands 0.5 µM.
`Cc1ncccc1Oc1ncnc2c1cnn2C1CCC(c2nc(C(C)C)no2)CC1` (stereo not drawn) [Example 135, 1-[4-(3-Isopropyl-[1,2,4]oxadiazol-5-yl)-cyclohexyl]-4-(2-methyl-pyridin-3-yloxy)-1H-pyrazolo[3,4-d]pyrimidine] gave a concentration for a half-maximal effect (EC50) of 0.92 µM.
Under `CC(C)(C)OC(=O)N1CCC(n2ncc3c(Oc4ccc(C#N)cc4F)ncnc32)CC1` [Example 47, 4-[4-(4-Cyano-2-fluoro-phenoxy)-pyrazolo[3,4-d]pyrimidin-1-yl]-piperidine-1-carboxylic acid tert-butyl ester] stands 0.28 µM.
Regarding `Cc1ncccc1Oc1ncnc2c1cnn2C1CCN(C(=O)OCc2ccccc2)CC1` [Example 124, 4-[4-(2-Methyl-pyridin-3-yloxy)-pyrazolo[3,4-d]pyrimidin-1-yl]-piperidine-1-carboxylic acid benzyl ester], the EC50 was found to be 0.24 µM.
In turn, `CC(C)c1noc(N2CCC(n3ncc4c(Oc5ccc(S(C)(=O)=O)cc5F)ncnc43)CC2)n1` [Example 127, 4-(2-Fluoro-4-methanesulfonyl-phenoxy)-1-[1-(3-isopropyl-[1,2,4]oxadiazol-5-yl)-piperidin-4-yl]-1H-pyrazolo[3,4-d]pyrimidine] yielded an EC50 of 0.068 µM.
Under `Cc1nc(S(C)(=O)=O)ccc1Oc1ncnc2c1cnn2C1CCN(C(=O)OC(C)C)CC1` [Example 29, 4-[4-(6-Methanesulfonyl-2-methyl-pyridin-3-yloxy)-pyrazolo[3,4-d]pyrimidin-1-yl]-piperidine-1-carboxylic acid isopropyl ester] stands 0.14 µM; under `CCOc1ccc(Oc2ncnc3c2cnn3C2CCN(C(=O)C3CCCC3)CC2)c(F)c1` [Example 147, Cyclopentyl-{4-[4-(4-ethoxy-2-fluoro-phenoxy)-pyrazolo[3,4-d]pyrimidin-1-yl]-piperidin-1-yl}-methanone], 0.26 µM; under `CC(C)COC(=O)N1CCC(n2ncc3c(Oc4ccc(S(C)(=O)=O)cc4)ncnc32)CC1` [Example 106, 4-[4-(4-Methanesulfonyl-phenoxy)-pyrazolo[3,4-d]pyrimidin-1-yl]-piperidine-1-carboxylic acid isobutyl ester], 0.11 µM.
`CC(C)(C)OC(=O)N1CCC(n2ncc3c(N4CCc5cc(S(C)(=O)=O)ccc54)ncnc32)CC1` [Example 10, 4-[4-(5-Methanesulfonyl-2,3-dihydro-indol-1-yl)-pyrazolo[3,4-d]pyrimidin-1-yl]-piperidine-1-carboxylic acid tert-butyl ester] registered an EC50 of 0.46 µM.
For `Cc1nc(-n2cncn2)ccc1Nc1ncnc2c1cnn2C1CCN(C(=O)OC(C)(C)C)CC1` [Example 9, 4-[4-(2-Methyl-6-[1,2,4]triazol-1-yl-pyridin-3-ylamino)-pyrazolo[3,4-d]pyrimidin-1-yl]-piperidine-1-carboxylic acid tert-butyl ester] the value was 2.4 µM; for `CC(C)(C)COC(=O)N1CCC(n2ncc3c(Oc4ccc(S(C)(=O)=O)cc4)ncnc32)CC1` [Example 108, 4-[4-(4-Methanesulfonyl-phenoxy)-pyrazolo[3,4-d]pyrimidin-1-yl]-piperidine-1-carboxylic acid 2,2-dimethyl-propyl ester], 0.1 µM; for `CC(C)c1noc(N2CCC(n3ncc4c(Oc5ccc(S(C)(=O)=O)cc5)ncnc43)CC2)n1` [Example 126, 1-[1-(3-Isopropyl-[1,2,4]oxadiazol-5-yl)-piperidin-4-yl]-4-(4-methanesulfonyl-phenoxy)-1H-pyrazolo[3,4-d]pyrimidine], 0.43 µM.
For `CC(C)(C)OC(=O)N1CCC(n2ncc3c(Oc4ccc5ccc(=O)oc5c4)ncnc32)CC1` [Example 75, 4-[4-(2-Oxo-2H-chromen-7-yloxy)-pyrazolo[3,4-d]pyrimidin-1-yl]-piperidine-1-carboxylic acid tert-butyl ester] the value was 1.8 µM.
With `Cc1ncccc1Oc1ncnc2c1cnn2C1CCN(C(=O)Oc2ccccc2)CC1` [Example 122, 4-[4-(2-Methyl-pyridin-3-yloxy)-pyrazolo[3,4-d]pyrimidin-1-yl]-piperidine-1-carboxylic acid phenyl ester], a half-maximal effect (EC50) was put at 1.1 µM.
Under `CC(C)(C)OC(=O)N1CCC(n2ncc3c(Oc4ccc(C#N)cc4)ncnc32)CC1` [Example 46, 4-[4-(4-Cyano-phenoxy)-pyrazolo[3,4-d]pyrimidin-1-yl]-piperidine-1-carboxylic acid tert-butyl ester] stands 0.48 µM; under `CC(C)(C)OC(=O)N1CCC(n2ncc3c(Oc4cccnc4C#N)ncnc32)CC1` [Example 99, 4-[4-(2-Cyano-pyridin-3-yloxy)-pyrazolo[3,4-d]pyrimidin-1-yl]-piperidine-1-carboxylic acid tert-butyl ester], 0.2 µM; under `CC(=O)Nc1ccc(Oc2ncnc3c2cnn3C2CCN(C(=O)OC(C)(C)C)CC2)cc1` [Example 70, 4-[4-(4-Acetylamino-phenoxy)-pyrazolo[3,4-d]pyrimidin-1-yl]-piperidine-1-carboxylic acid tert-butyl ester], 0.14 µM.
For `CC(C)(C)OC(=O)N1CCC(n2ncc3c(Oc4ccc(Cl)cc4Cl)ncnc32)CC1` [Example 38, 4-[4-(2,4-Dichloro-phenoxy)-pyrazolo[3,4-d]pyrimidin-1-yl]-piperidine-1-carboxylic acid tert-butyl ester], the response was half-maximal at 0.49 µM (EC50).
For `CC(C)(C)OC(=O)N1CCC(n2ncc3c(Oc4ccc(C(F)(F)F)cc4Cl)ncnc32)CC1` [Example 54, 4-[4-(2-Chloro-4-trifluoromethyl-phenoxy)-pyrazolo[3,4-d]pyrimidin-1-yl]-piperidine-1-carboxylic acid tert-butyl ester] the value was 0.083 µM; for `CC(=O)N1CCN(c2ccc(Oc3ncnc4c3cnn4C3CCN(C(=O)OC(C)(C)C)CC3)cc2)CC1` [Example 67, 4-{4-[4-(4-Acetyl-piperazin-1-yl)-phenoxy]-pyrazolo[3,4-d]pyrimidin-1-yl}-piperidine-1-carboxylic acid tert-butyl ester], 0.85 µM; for `CC(C)(C)OC(=O)N1CCC(n2ncc3c(Oc4ccc([N+](=O)[O-])cc4F)ncnc32)CC1` [Example 66, 4-[4-(2-Fluoro-4-nitro-phenoxy)-pyrazolo[3,4-d]pyrimidin-1-yl]-piperidine-1-carboxylic acid tert-butyl ester], 0.75 µM.

In general, EC50 refers to the concentration giving half of the maximal effect.
